Several values for one entry are separate records, joined by “and”; a condition that tells them apart may be missing. Equal values may be shown once.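 All cell lines were grown in 96-well plates and treated with compound for 48 hours. The concentration for 50% growth inhibition is given as GI50. TGI denotes the concentration required for complete inhibition of growth.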 Where only a bound is given, the exact number is not on record here.

Consider six molecules from PubChem BioAssay (NCI).

Experiment in all cases: DTP human tumour cell line panel, 48 h
For test [1], the system named is A498 renal.
Test [2] relates to CAKI-1 renal.
The subject of test [3] is HCT-116 colon.
Test [4] has as its system MALME-3M melanoma.
Test [5] relates to OVCAR-4 ovarian.
Test [6] concerns RPMI-8226 leukemia.
The test system of test [7] is SK-MEL-5 melanoma.
The subject of test [8] is UACC-62 melanoma.

One may read the GI50 as the concentration at which growth is held to half of that of the control. For orientation: TGI means the concentration giving total growth inhibition. `CC/C=C\C[C@H](F)C/C=C1/C(=O)C=C[C@@H]1C/C=C\CCCC(=O)O`: the GI50 in test [1] was 5.59 µM; in test [2] it was 6.52 µM; in test [3], 1.34 µM; in test [4] it was 8.08 µM; in test [5] it was 7.76 µM; in test [6] it was 1.22 µM. The GI50 in test [7] is 4.86 µM; in test [8], 4.29 µM. Moreover, the TGI is 11 µM in test [1]; 22.5 µM in test [2]; 4.78 µM in test [3]; 23.2 µM in test [4]; greater than 32.5 µM in test [5]; 30.8 µM in test [6]. Further, the values for the TGI in test [7] and in test [8] were 9.18 µM and 11.1 µM, respectively.

In the case of `COc1cc2cc(Oc3ccc(NC(=O)Nc4ccc(Cl)c(C(F)(F)F)c4)cc3)c(C)nc2cc1OCCN1CCOCC1`, the GI50 was 2.45 µM in test [1]; 1.8 µM in test [2]; 1.2 µM in test [3]; 1.52 µM in test [4]; 0.582 µM in test [5]; 0.936 µM in test [6]. Besides, the GI50 in test [7] was 1.14 µM; in test [8], 1.36 µM. For the same molecule, the TGI worked out at 9.62 µM in test [1]; 10.8 µM in test [2]; 10.8 µM in test [3]; 3.27 µM in test [4]; 3.41 µM in test [5]; 4.34 µM in test [6]. Besides, the TGI was determined as 2.37 µM in test [7] and 3.46 µM in test [8].

As to `Nc1nccc(-c2c(-c3ccc(F)cc3)ncn2C2CCC(O)CC2)n1` (stereo not given), the GI50 in test [1] is 3.29 µM; in test [2], 7.13 µM; in test [3], 9.75 µM; in test [4], 6.72 µM; in test [5] it was 2.92 µM; in test [6], 11.7 µM. For the same molecule, the GI50 is 3.94 µM in test [7] and 10.6 µM in test [8]. For the same molecule, the TGI in test [1], in test [2], in test [3], in test [4], in test [5] and in test [6] was greater than 25 µM in each case. Further, the TGI in test [7] and in test [8] was greater than 25 µM throughout.

On to `Cc1ccc2c(c1)Sc1c(ccc3ccccc13)N2`, for which the GI50 was 83.9 µM in test [1]; 15.3 µM in test [2]; 8.37 µM in test [3]; greater than 100 µM in test [4]; greater than 100 µM in test [5]; 13.4 µM in test [6]. For the same molecule, the results for the GI50 in test [7] and in test [8] were 12.4 µM and 73.8 µM, respectively. The TGI in test [1], in test [2], in test [3], in test [4], in test [5] and in test [6] was greater than 100 µM in each case. In addition, the concentration for total growth inhibition (TGI) in test [7] and in test [8] was greater than 100 µM in each case.

On to `O=C1C(Cl)=C(NCCN2CCOCC2)C(=O)c2ncccc21`, for which the GI50 in test [1] was 1.91 µM; in test [2] it was 1.92 µM; in test [4] it was 1.13 µM; in test [5] it was 1.85 µM; in test [6], 2.72 µM; in test [7], 1.72 µM. Besides, the GI50 in test [8] was 1.15 µM. In addition, the TGI was 7.65 µM and 10.9 µM in test [1]; 3.72 µM in test [2]; 3.51 µM and 3.58 µM in test [3]; 3.07 µM and 2.63 µM in test [4]; 3.88 µM in test [5]; 9.23 µM in test [6]. Moreover, the TGI in test [7] is 2.32 µM and 3.16 µM; in test [8], 3.52 µM and 2.61 µM.

Take `CCC[CH2][Sn]1([CH2]CCC)[O]C(=O)CN=Cc2c(ccc3ccccc23)[O]1`: the GI50 is 1.55 µM in test [1]; 0.0629 µM in test [2]; 1.04 µM in test [3]; 0.134 µM in test [4]; 1 µM in test [5]; 0.154 µM in test [6]. Further, the GI50 was 1.81 µM in test [7] and 0.229 µM in test [8]. Also, the TGI was greater than 100 µM in test [1]; 0.593 µM in test [2]; 2.32 µM in test [3]; 0.464 µM in test [4]; 2.19 µM in test [5]; 0.529 µM in test [6]. The TGI was greater than 100 µM in test [7] and 0.558 µM in test [8].
